Laboratory results as given in PubChem BioAssay AID248 (DTP/NCI, 2004).
Values joined by “and” are separate entries in the source; they are usually repeats but may differ in a detail not shown here. Equal values may be shown once. Toxic doses and inconclusive results are not listed. Cut-off read from the data, not from the text of the source: active = T/C of 150% or more; inactive = T/C below 125%.

Test system: L1210 leukemia ip in BDF1 mice, survival T/C
Test: NCI In Vivo Anticancer Drug Screen. Data for tumor model L1210 Leukemia (intraperitoneal) in B6D2F1 (BDF1) mice
Conditions: endpoint: mean survival time, higher = longer survival
Procedure, shortened: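 In this screen, tumor-bearing mice given compound are compared to those given vehicle, and their survival values are reported as a treated-to-control quotient.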

[1] = dose: 100.0 mg/kg/injection, schedule: Q01DX009 (ip), vehicle: Klucel (hydroxypropylcellulose) (HPC)
[2] = dose: 100.0 mg/kg/injection, schedule: Q04DX003 (ip), vehicle: Klucel (hydroxypropylcellulose) (HPC)
[3] = dose: 200.0 mg/kg/injection, schedule: Q01DX009 (ip), vehicle: Klucel (hydroxypropylcellulose) (HPC)
[4] = dose: 200.0 mg/kg/injection, schedule: Q04DX003 (ip), vehicle: Klucel (hydroxypropylcellulose) (HPC)
[5] = dose: 400.0 mg/kg/injection, schedule: Q01DX009 (ip), vehicle: Klucel (hydroxypropylcellulose) (HPC)
[6] = dose: 400.0 mg/kg/injection, schedule: Q04DX003 (ip), vehicle: Klucel (hydroxypropylcellulose) (HPC)
[7] = dose: 100.0 mg/kg/injection, schedule: Q01DX009 (ip), vehicle: saline
[8] = dose: 100.0 mg/kg/injection, schedule: Q04DX003 (ip), vehicle: saline
[9] = dose: 200.0 mg/kg/injection, schedule: Q01DX009 (ip), vehicle: saline
[10] = dose: 200.0 mg/kg/injection, schedule: Q04DX003 (ip), vehicle: saline
[11] = dose: 100.0 mg/kg/injection, schedule: Q01DX001 (ip), vehicle: carboxymethylcellulose (CMC)
[12] = dose: 200.0 mg/kg/injection, schedule: Q01DX001 (ip), vehicle: carboxymethylcellulose (CMC)
[13] = dose: 100.0 mg/kg/injection, schedule: Q01DX001 (ip), vehicle: saline
[14] = dose: 100.0 mg/kg/injection, schedule: Q04DX003 (ip), vehicle: saline with Tween-80
[15] = dose: 200.0 mg/kg/injection, schedule: Q04DX003 (ip), vehicle: saline with Tween-80
[16] = dose: 400.0 mg/kg/injection, schedule: Q04DX003 (ip), vehicle: saline with Tween-80
[17] = dose: 200.0 mg/kg/injection, schedule: Q01DX001 (ip), vehicle: saline
[18] = dose: 400.0 mg/kg/injection, schedule: Q01DX001 (ip), vehicle: saline

Measured: T/C

COC(=O)C1C(C(=O)OC)C2(Cl)C(Cl)=C(Cl)C1(Cl)C2(Br)Br (stereo not drawn)
inactive: dose: 100.0 mg/kg/injection, schedule: Q01DX001 (ip), vehicle: Klucel (hydroxypropylcellulose) (HPC) 101 % of control | [1] 104 % of control | [2] 104 % of control | dose: 200.0 mg/kg/injection, schedule: Q01DX001 (ip), vehicle: Klucel (hydroxypropylcellulose) (HPC) 104 % of control | [3] 101 % of control | [4] 100 % of control | dose: 400.0 mg/kg/injection, schedule: Q01DX001 (ip), vehicle: Klucel (hydroxypropylcellulose) (HPC) 97 % of control | [5] 97 % of control | [6] 104 % of control

Nc1ccc2cc3ccc(N)cc3nc2c1
inactive: dose: 50.0 mg/kg/injection, schedule: Q01DX001 (ip), vehicle: saline 120 % of control

O=C(c1ccc(F)cc1)c1ccc2ccccc2c1C(=O)O
inactive: dose: 100.0 mg/kg/injection, schedule: Q04DX002 (ip), vehicle: Klucel (hydroxypropylcellulose) (HPC) 89 % of control | dose: 200.0 mg/kg/injection, schedule: Q04DX002 (ip), vehicle: Klucel (hydroxypropylcellulose) (HPC) 92 % of control | dose: 400.0 mg/kg/injection, schedule: Q04DX002 (ip), vehicle: Klucel (hydroxypropylcellulose) (HPC) 99 % of control

Cc1cc(NC(=O)COc2ccc([N+](=O)[O-])cc2Cl)ccc1S(=O)(=O)F
inactive: dose: 100.0 mg/kg/injection, schedule: Q01DX001 (ip), vehicle: saline with Tween-80 102 % of control | dose: 200.0 mg/kg/injection, schedule: Q01DX001 (ip), vehicle: saline with Tween-80 98 % of control | dose: 400.0 mg/kg/injection, schedule: Q01DX001 (ip), vehicle: saline with Tween-80 93 % of control

C[n+]1ccccc1/C=N/O
inactive: dose: 25.0 mg/kg/injection, schedule: Q01DX009 (ip), vehicle: saline 105 % of control | dose: 33.0 mg/kg/injection, schedule: Q01DX009 (ip), vehicle: saline 100 % of control | dose: 50.0 mg/kg/injection, schedule: Q01DX009 (ip), vehicle: saline 98 % of control | dose: 75.0 mg/kg/injection, schedule: Q01DX009 (ip), vehicle: Klucel (hydroxypropylcellulose) (HPC) 102 % of control | dose: 75.0 mg/kg/injection, schedule: Q01DX009 (ip), vehicle: saline 98 % of control | dose: 75.0 mg/kg/injection, schedule: Q04DX003 (ip), vehicle: saline 91 % of control | [7] 100 % of control and 103 % of control | [8] 103 % of control | dose: 150.0 mg/kg/injection, schedule: Q01DX009 (ip), vehicle: Klucel (hydroxypropylcellulose) (HPC) 108 % of control | dose: 150.0 mg/kg/injection, schedule: Q04DX003 (ip), vehicle: saline 109 % of control | [9] 97 % of control | [10] 94 % of control | dose: 300.0 mg/kg/injection, schedule: Q04DX003 (ip), vehicle: saline 98 % of control

O=P(CCCCCCP(=O)(N1CC1)N1CC1)(N1CC1)N1CC1
inactive: dose: 25.0 mg/kg/injection, schedule: Q01DX009 (ip), vehicle: carboxymethylcellulose (CMC) 112 % of control and 115 % of control | dose: 50.0 mg/kg/injection, schedule: Q01DX009 (ip), vehicle: carboxymethylcellulose (CMC) 120 % of control and 121 % of control | [11] 116 % of control | [12] 103 % of control | dose: 200.0 mg/kg/injection, schedule: Q01DX009 (ip), vehicle: carboxymethylcellulose (CMC) 98 % of control and 101 % of control

CCS(=O)(=O)c1ccc(NC(=O)OC2CC(C)CCC2C(C)C)cc1 (stereo not drawn)
inactive: [11] 100 % of control | [12] 102 % of control | dose: 400.0 mg/kg/injection, schedule: Q01DX001 (ip), vehicle: carboxymethylcellulose (CMC) 91 % of control

CCOC(=O)NC(CI)(c1ccccc1)c1ccccc1
inactive: dose: 75.0 mg/kg/injection, schedule: Q01DX001 (ip), vehicle: saline 98 % of control | dose: 150.0 mg/kg/injection, schedule: Q01DX001 (ip), vehicle: saline 97 % of control | dose: 300.0 mg/kg/injection, schedule: Q01DX001 (ip), vehicle: saline 92 % of control

CN(C)/C=C(/C#N)C(=O)N1CCCC1
inactive: [7] 106 % of control | [8] 101 % of control | [9] 102 % of control | [10] 101 % of control | dose: 400.0 mg/kg/injection, schedule: Q01DX009 (ip), vehicle: saline 112 % of control | dose: 400.0 mg/kg/injection, schedule: Q04DX003 (ip), vehicle: saline 117 % of control

O=C1CC2(CCCCC2)C(=O)N1
inactive: dose: 5.0 mg/kg/injection, schedule: Q04DX003 (ip), vehicle: saline with Tween-80 102 % of control | dose: 10.0 mg/kg/injection, schedule: Q04DX003 (ip), vehicle: saline with Tween-80 102 % of control | dose: 20.0 mg/kg/injection, schedule: Q04DX003 (ip), vehicle: saline with Tween-80 102 % of control

O=C1NC(=O)N(c2ccc(Cl)cc2)C1=O
inactive: dose: 100.0 mg/kg/injection, schedule: Q04DX002 (ip), vehicle: saline with Tween-80 111 % of control | dose: 200.0 mg/kg/injection, schedule: Q04DX002 (ip), vehicle: saline with Tween-80 90 % of control

Nc1csc2cccc[n+]12
inactive: dose: 25.0 mg/kg/injection, schedule: Q04DX003 (ip), vehicle: saline 100 % of control | [13] 96 % of control

O=C(O)CCCc1ccc2c(c1)-c1ccccc1S2=O (stereo not drawn)
inactive: [14] 106 % of control | [15] 109 % of control | [16] 110 % of control

CCC(=O)C(CCN(C)C)c1ccccn1 (stereo not drawn)
inactive: dose: 20.0 mg/kg/injection, schedule: Q01DX Z (ip), vehicle: saline 103 % of control | dose: 30.0 mg/kg/injection, schedule: Q01DX Z (ip), vehicle: saline 91 % of control | dose: 44.0 mg/kg/injection, schedule: Q01DX Z (ip), vehicle: saline 91 % of control | dose: 66.0 mg/kg/injection, schedule: Q01DX Z (ip), vehicle: saline 93 % of control

Cc1cccc[c]1[Sb](=[O])([OH])[OH]
inactive: dose: 5.0 mg/kg/injection, schedule: Q01DX001 (ip), vehicle: saline 94 % of control | dose: 10.0 mg/kg/injection, schedule: Q01DX001 (ip), vehicle: saline 97 % of control | dose: 20.0 mg/kg/injection, schedule: Q01DX001 (ip), vehicle: saline 97 % of control | dose: 40.0 mg/kg/injection, schedule: Q01DX001 (ip), vehicle: saline 103 % of control | dose: 80.0 mg/kg/injection, schedule: Q01DX001 (ip), vehicle: saline 105 % of control

CC(=O)NCC(N)=S
inactive: [13] 102 % of control | [17] 102 % of control | [18] 98 % of control

Cc1ccc(Nc2nc(N)nc(CNc3ccc(Cl)cc3)n2)cc1
inactive: [14] 89 % of control | [15] 97 % of control | [16] 89 % of control

O=C(/C=C/c1ccc2c(c1)OCO2)c1ccc2c(c1)OCO2
inactive: [1] 106 % of control | [2] 98 % of control | [3] 100 % of control | [4] 104 % of control | [5] 100 % of control | [6] 101 % of control

Cc1cc(=O)cc(C)[nH]1
inactive: [13] 90 % of control | [17] 94 % of control | [18] 92 % of control

Clc1ccc(-c2cc(=[N+]3CCOCC3)ss2)cc1
inactive: dose: 25.0 mg/kg/injection, schedule: Q01DX009 (ip), vehicle: water 101 % of control | dose: 50.0 mg/kg/injection, schedule: Q01DX009 (ip), vehicle: water 93 % of control | dose: 100.0 mg/kg/injection, schedule: Q01DX009 (ip), vehicle: water 96 % of control | dose: 200.0 mg/kg/injection, schedule: Q01DX009 (ip), vehicle: water 88 % of control

C[n+]1ccccc1/C=C/c1ccc2c(c1)OCO2
inactive: dose: 12.5 mg/kg/injection, schedule: Q01DX009 (ip), vehicle: Klucel (hydroxypropylcellulose) (HPC) 94 % of control | dose: 12.5 mg/kg/injection, schedule: Q04DX003 (ip), vehicle: Klucel (hydroxypropylcellulose) (HPC) 95 % of control | dose: 25.0 mg/kg/injection, schedule: Q01DX009 (ip), vehicle: Klucel (hydroxypropylcellulose) (HPC) 92 % of control | dose: 25.0 mg/kg/injection, schedule: Q04DX003 (ip), vehicle: Klucel (hydroxypropylcellulose) (HPC) 94 % of control
